Calls of active or inactive are those of the source. The rule behind the calls is not given here.
Experiments:
CCRF-CEM [1] = assay: (§1) Induction of apoptosis in human CCRF-CEM cells assessed as necrotic cells at 8 uM after 72 hrs by Annexin V/propidium iodide staining based flow cytometry (reference value: 0.11%); type: functional
CCRF-CEM [2] = assay: Induction of apoptosis in human CCRF-CEM cells assessed as necrotic cells at 2 uM after 72 hrs by Annexin V/propidium iodide staining based flow cytometry (reference value: 0.11%); type: functional
CCRF-CEM [3] = assay: Induction of apoptosis in human CCRF-CEM cells assessed as late apoptotic cells at 8 uM after 8 hrs by Annexin V/propidium iodide staining based flow cytometry (reference value: 8.60%); type: functional
CCRF-CEM [4] = assay: Cell cycle arrest in human CCRF-CEM cells assessed as accumulation of cells at G2/M phase at 8 uM after 48 hrs by RNAse/propidium iodide staining based flow cytometry (reference value: 25.6%); type: functional
CCRF-CEM [5] = assay: as §1; type: functional; remark: listed apart in the source
CCRF-CEM [6] = assay: (§2) Induction of apoptosis in human CCRF-CEM cells assessed as early apoptotic cells at 8 uM after 72 hrs by Annexin V/propidium iodide staining based flow cytometry (reference value: 0.87%); type: functional
CCRF-CEM [7] = assay: Induction of apoptosis in human CCRF-CEM cells assessed as viable cells at 2 uM after 72 hrs by Annexin V/propidium iodide staining based flow cytometry (reference value: 90.4%); type: functional; settings: read-out: Activity
CCRF-CEM [8] = assay: Induction of apoptosis in human CCRF-CEM cells assessed as early apoptotic cells at 16 uM after 72 hrs by Annexin V/propidium iodide staining based flow cytometry (reference value: 0.87%); type: functional
CCRF-CEM [9] = assay: Cell cycle arrest in human CCRF-CEM cells assessed as accumulation of cells at S phase at 8 uM after 72 hrs by RNAse/propidium iodide staining based flow cytometry (reference value: 46%); type: functional
CCRF-CEM [10] = assay: Induction of apoptosis in human CCRF-CEM cells assessed as early apoptotic cells at 8 uM after 24 hrs by Annexin V/propidium iodide staining based flow cytometry (reference value: 0.87%); type: functional
CCRF-CEM [11] = assay: Induction of apoptosis in human CCRF-CEM cells assessed as early apoptotic cells at 8 uM after 8 hrs by Annexin V/propidium iodide staining based flow cytometry (reference value: 0.87%); type: functional
CCRF-CEM [12] = assay: Cell cycle arrest in human CCRF-CEM cells assessed as accumulation of cells at G2/M phase at 8 uM after 24 hrs by RNAse/propidium iodide staining based flow cytometry (reference value: 25.6%); type: functional
CCRF-CEM [13] = assay: Cell cycle arrest in human CCRF-CEM cells assessed as accumulation of cells at S phase at 8 uM after 24 hrs by RNAse/propidium iodide staining based flow cytometry (reference value: 46%); type: functional
CCRF-CEM [14] = assay: Induction of apoptosis in human CCRF-CEM cells assessed as viable cells at 8 uM after 72 hrs by Annexin V/propidium iodide staining based flow cytometry (reference value: 90.4%); type: functional; settings: read-out: Activity
CCRF-CEM [15] = assay: Cell cycle arrest in human CCRF-CEM cells assessed as accumulation of cells at sub G1 phase at 8 uM after 48 hrs by RNAse/propidium iodide staining based flow cytometry (reference value: 0.1%); type: functional
CCRF-CEM [16] = assay: Induction of apoptosis in human CCRF-CEM cells assessed as decrease in Bcl-2 level after 72 hrs by western blot analysis; type: functional, cell-based
CCRF-CEM [17] = assay: Cell cycle arrest in human CCRF-CEM cells assessed as accumulation of cells at S phase at 8 uM after 48 hrs by RNAse/propidium iodide staining based flow cytometry (reference value: 46%); type: functional
CCRF-CEM [18] = assay: Induction of apoptosis in human CCRF-CEM cells assessed as viable cells at 8 uM after 24 hrs by Annexin V/propidium iodide staining based flow cytometry (reference value: 90.4%); type: functional; settings: read-out: Activity
CCRF-CEM [19] = assay: Induction of apoptosis in human CCRF-CEM cells at 8 uM by Annexin V-FITC/propidium iodide staining based flow cytometry; type: functional, cell-based; settings: TDE = time-dependent effect
CCRF-CEM [20] = assay: as §2; type: functional; remark: listed apart in the source
CCRF-CEM [21] = assay: Induction of apoptosis in human CCRF-CEM cells assessed as late apoptotic cells at 16 uM after 72 hrs by Annexin V/propidium iodide staining based flow cytometry (reference value: 8.60%); type: functional
CCRF-CEM [22] = assay: Induction of apoptosis in human CCRF-CEM cells after 72 hrs by Annexin V-FITC/propidium iodide staining based flow cytometry; type: functional, cell-based
CCRF-CEM [23] = assay: Induction of apoptosis in human CCRF-CEM cells assessed as late apoptotic cells at 8 uM after 48 hrs by Annexin V/propidium iodide staining based flow cytometry (reference value: 8.60%); type: functional
CCRF-CEM [24] = assay: Induction of apoptosis in human CCRF-CEM cells assessed as late apoptotic cells at 8 uM after 24 hrs by Annexin V/propidium iodide staining based flow cytometry (reference value: 8.60%); type: functional
[25] = target: c-Jun N-terminal kinase, JNK (Homo sapiens) (UniProt P45983+P53779+P45984); assay: Activation of JNK in human CCRF-CEM cells assessed as increase in phosphorylated JNK level at 8 uM incubated for 1 to 6 hrs by Western blot analysis; type: cell-based
CCRF-CEM [26] = assay: Induction of apoptosis in human CCRF-CEM cells assessed as necrotic cells at 4 uM after 72 hrs by Annexin V/propidium iodide staining based flow cytometry (reference value: 0.11%); type: functional
CCRF-CEM [27] = assay: Induction of apoptosis in human CCRF-CEM cells assessed as late apoptotic cells at 2 uM after 72 hrs by Annexin V/propidium iodide staining based flow cytometry (reference value: 8.60%); type: functional

## O=[N+]([O-])c1ccc(O/N=[N+](\[O-])N2CCC(CN3CCN(/[N+]([O-])=N/Oc4ccc([N+](=O)[O-])cc4[N+](=O)[O-])CC3)CC2)c([N+](=O)[O-])c1
CCRF-CEM [1]
  Activity: 0.077%
CCRF-CEM [2]
  Activity: 0.015%
CCRF-CEM [3]
  Activity: 24.3%
CCRF-CEM [4]
  Activity: 54.5%
CCRF-CEM [5]
  Activity: 0.11%
CCRF-CEM [6]
  Activity: 4.93%
CCRF-CEM [7]
  viability at 2 µM: 87.5%
CCRF-CEM [8]
  Activity: 3.64%
CCRF-CEM [9]
  Activity: 0%
CCRF-CEM [10]
  Activity: 7.03%
CCRF-CEM [11]
  Activity: 13.8%
CCRF-CEM [12]
  Activity: 45.7%
CCRF-CEM [13]
  Activity: 26.3%
CCRF-CEM [14]
  viability at 8 µM: 34.8%
CCRF-CEM [15]
  Activity: 8.4%
CCRF-CEM [16]
  Activity: Dose-dependent effect
CCRF-CEM [17]
  Activity: 8.2%
CCRF-CEM [18]
  viability at 8 µM: 65%
CCRF-CEM [19]
  Activity: Tde
CCRF-CEM [20]
  Activity: 8.93%
CCRF-CEM [21]
  Activity: 95.6%
CCRF-CEM [22]
  Activity: Dose-dependent effect
CCRF-CEM [23]
  Activity: 49.8%
CCRF-CEM [24]
  Activity: 27.9%
[25]
  Activity: Active
CCRF-CEM [26]
  Activity: 0.028%
CCRF-CEM [27]
  Activity: 9.53%

From ChEMBL document CHEMBL4619712, “Double-component diazeniumdiolate derivatives as anti-cancer agents” (Bioorg Med Chem, 2020)
